# Measured values from paper PMC6378654 (Journal of Medicinal Chemistry, 2019).
# Where two headings read alike, the source gives them in different places.
# Assays:
# [1] = biological target: T1, human proteasome subunit β2c (Homo sapiens, UniProt Q99436); test: Competitive ABPP in Raji cell lysates; type: biochemical; conditions: for IC50: read-out: Apparent IC50 β2c
# T1 sequence (Q99436 44-277): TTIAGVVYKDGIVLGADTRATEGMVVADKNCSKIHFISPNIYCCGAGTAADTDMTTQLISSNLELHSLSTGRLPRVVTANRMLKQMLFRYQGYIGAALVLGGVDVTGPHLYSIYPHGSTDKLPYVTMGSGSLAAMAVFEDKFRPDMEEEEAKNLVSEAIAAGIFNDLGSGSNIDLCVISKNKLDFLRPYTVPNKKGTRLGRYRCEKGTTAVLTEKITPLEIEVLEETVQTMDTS
# β2i = biological target: T2, β2i (Homo sapiens, UniProt P40306); test: ABPP assay with probe 97 in Raji cell lysates; type: biochemical; conditions: for labeling of β2i by probe 97 after preincubation with inhibitor: LU-002i at 3 μM, LU-002c at high concentrations, Figure 4B
# T2 sequence (P40306 40-273): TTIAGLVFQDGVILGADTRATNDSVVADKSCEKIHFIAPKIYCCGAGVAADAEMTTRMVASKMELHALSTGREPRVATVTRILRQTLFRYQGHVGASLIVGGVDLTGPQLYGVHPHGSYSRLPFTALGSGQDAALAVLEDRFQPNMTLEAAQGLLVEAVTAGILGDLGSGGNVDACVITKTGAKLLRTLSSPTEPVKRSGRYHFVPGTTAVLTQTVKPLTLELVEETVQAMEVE
# [2] = Solubility in aqueous solutions; type: physicochemical; conditions: stated in words
# [3] = test system: human proteasome subunit β2c; test: Competitive ABPP in Raji cell lysates; type: biochemical
# [4] = biological target: T3, human proteasome subunit β2i (Homo sapiens, UniProt P40306); test: Competitive ABPP in Raji cell lysates; type: biochemical; conditions: LU-002i 3 μM, LU-002c 0.3 μM, LU-102 1 μM, Figure 4B
# T3 sequence (P40306 40-273): T2 sequence (P40306 40-273)
compound,measurement,setting,value
"COc1ccc(C[C@H](NC(=O)[C@H](C)NC(=O)CN2CCOCC2)C(=O)N[C@@H](C[C@H]2CCC[C@@H]3CCCC[C@@H]32)C(=O)[C@@]2(C)CO2)cc1 [Compound 86, Morp-Ala-Tyr(Me)-1-DecAla-EK]",IC50,"[1]; Raji cell lysates, Table 6",> 100 µM
"CC(C)C[C@H](NC(=O)[C@H](Cc1ccccc1)N=[N+]=[N-])C(=O)N[C@@H](CC(C)C)C(=O)N[C@H](/C=C/S(C)(=O)=O)Cc1ccc(CN)cc1 [Compound 1, reference compound]",labeling of β2i by probe 97 after preincubation with inhibitor,β2i,completely abolished
COc1ccc(C[C@H](NC(=O)[C@H](C)NC(=O)CN2CCOCC2)C(=O)N[C@@H](CC2CCCC3CCCCC32)C(=O)[C@@]2(C)CO2)cc1 (stereo partly shown) [Compound 5],solubility in aqueous solutions,[2],poorly soluble
"COc1ccc(C[C@H](NC(=O)[C@H](C)NC(=O)CN2CCOCC2)C(=O)N[C@@H](C[C@H]2CCCc3ccccc32)C(=O)[C@@]2(C)CO2)cc1 [Compound 68, Morp-Ala-Tyr(Me)-1-(R)-TetraNal-EK]",IC50,"[1]; Raji cell lysates, Table 6",> 100 µM
"COc1ccc(C[C@H](NC(=O)[C@H](C)NC(=O)CN2CCOCC2)C(=O)N[C@@H](CCC2CCCCC2)C(=O)[C@@]2(C)CO2)cc1 [Compound 39, Morp-Ala-Tyr(Me)-HomoCha-EK]",IC50,"[1]; Raji cell lysates, wider range of final concentrations, Table 5",2.5 µM
Cc1ncc(C(=O)N[C@@H](CC2CCCCC2)C(=O)N[C@@H](CC2CCCCC2)C(=O)N[C@H](/C=C/S(C)(=O)=O)Cc2ccc(CN)cc2)s1 [Compound 36],selectivity for β2c over β2i,[3]; initial screening (Table 1),10.5 fold
"COc1ccc(C[C@H](NC(=O)[C@H](C)NC(=O)CN2CCOCC2)C(=O)N[C@@H](C[C@@H]2CCCc3ccccc32)C(=O)[C@@]2(C)CO2)cc1 [Compound 71, Morp-Ala-Tyr(Me)-1-(S)-TetraNal-EK]",IC50,"[1]; Raji cell lysates, Table 6",> 100 µM
CC(C)C[C@H](NC(=O)c1cnccn1)C(=O)N[C@@H](CC(C)C)C(=O)N[C@H](/C=C/S(C)(=O)=O)Cc1ccc(CN)cc1 [Compound 7],decreased potency for β2c compared to LU-102,[1]; initial screening,23 fold
"COc1ccc(C[C@H](NC(=O)[C@H](C)NC(=O)CN2CCOCC2)C(=O)N[C@@H](C[C@H]2CCCC3CCCCC32)C(=O)[C@@]2(C)CO2)cc1 (stereo partly shown) [Compound 74, Morp-Ala-Tyr(Me)-1-DecAla-EK]",IC50,"[1]; Raji cell lysates, Table 6",> 100 µM
"CC1=CC(C)=N/C1=C(/CCCCc1cn(CCOc2ccc(C[C@H](NC(=O)[C@H](C)NC(=O)CN3CCOCC3)C(=O)N[C@@H](CC3CCCC4CCCCC43)C(=O)[C@@]3(C)CO3)cc2)nn1)c1c(C)cc(C)n1B(F)F (stereo partly shown) [Compound 97, Morp-Ala-Tyr(O–C2H4-BODIPY(FL))-1-DecAla-EK]",β2i labeling by ABP 97,"β2i; final concentration of 3 μM, Figure 4A",selective
"COc1ccc(C[C@H](NC(=O)[C@H](C)NC(=O)CN2CCOCC2)C(=O)N[C@@H](C[C@@H]2CCCC3CCCCC32)C(=O)[C@@]2(C)CO2)cc1 (stereo partly shown) [Compound 77, Morp-Ala-Tyr(Me)-1-DecAla-EK]",IC50,"[1]; Raji cell lysates, Table 6",28 µM
COC[C@H](NC(=O)[C@H](CC(C)C)NC(=O)c1cnc(C)s1)C(=O)N[C@H](/C=C/S(C)(=O)=O)Cc1ccc(CN)cc1 [Compound 20],selectivity for β2c over β2i,"[3]; Raji cell extracts, wider range of concentrations (Table 2)",≥ 27 fold
same,selectivity for β2c over β2i,[3]; initial screening (Table 1),14 fold
CC(C)C[C@H](NC(=O)[C@H](Cc1ccccc1)N=[N+]=[N-])C(=O)N[C@@H](C)C(=O)N[C@H](/C=C/S(C)(=O)=O)Cc1ccc(CN)cc1 [Compound 4],β2c labeling by the three-probe mixture after inhibitor treatment,"[1]; Raji cell lysates, LU-002c 0.3 μM, LU-102 1 μM, Figure 4B",completely prevented
same,β2i labeling by the three-probe mixture after inhibitor treatment,[4],partially inhibited
same,labeling of β2i by probe 97 after preincubation with inhibitor,β2i,partially reduced
